Test results published in ChEMBL document CHEMBL4507329, “Data for DCP probe BTZO-1” (2021).

Legend:
[1] = system: Tyrosine-protein kinase ABL1 (Homo sapiens), P00519 [T315I]; conditions: Compound concentration 1000.0 nM
[2] = system: ALK tyrosine kinase receptor (Homo sapiens), Q9UM73 [L1196M]; conditions: Compound concentration 1000.0 nM
[3] = biological target: Mitogen-activated protein kinase kinase kinase 6 (Homo sapiens) (UniProt O95382); conditions: Compound concentration 1000.0 nM
[4] = biological target: Serine/threonine-protein kinase B-raf (Homo sapiens) (UniProt P15056); conditions: Compound concentration 1000.0 nM
[5] = biological target: Protein-tyrosine kinase 6 (Homo sapiens) (UniProt Q13882); conditions: Compound concentration 1000.0 nM
[6] = biological target: Calcium/calmodulin-dependent protein kinase type 1D (Homo sapiens) (UniProt Q8IU85); conditions: Compound concentration 1000.0 nM
[7] = biological target: Calcium/calmodulin-dependent protein kinase type II subunit beta (Homo sapiens) (UniProt Q13554); conditions: Compound concentration 1000.0 nM
[8] = biological target: Calcium/calmodulin-dependent protein kinase type IV (Homo sapiens) (UniProt Q16566); conditions: Compound concentration 1000.0 nM
[9] = biological target: Cyclin-dependent kinase 3 (Homo sapiens) (UniProt Q00526); conditions: Compound concentration 1000.0 nM
[10] = biological target: Cyclin-dependent kinase 4 (Homo sapiens) (UniProt P11802); conditions: Compound concentration 1000.0 nM
Cyclin-dependent kinase 4 (Homo sapiens), sequence (P11802 whole entry): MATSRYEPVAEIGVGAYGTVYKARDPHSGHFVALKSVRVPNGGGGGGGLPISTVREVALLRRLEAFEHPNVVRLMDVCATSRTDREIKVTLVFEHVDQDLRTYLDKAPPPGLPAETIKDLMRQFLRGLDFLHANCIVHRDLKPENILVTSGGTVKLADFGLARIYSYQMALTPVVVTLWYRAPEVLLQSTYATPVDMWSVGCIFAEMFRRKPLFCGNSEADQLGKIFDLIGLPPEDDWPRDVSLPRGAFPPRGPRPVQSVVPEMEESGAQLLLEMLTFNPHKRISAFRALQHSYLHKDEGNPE

[11] = biological target: Cyclin-dependent kinase 8 (Homo sapiens, UniProt P49336); conditions: Compound concentration 1000.0 nM
[12] = biological target: Serine/threonine-protein kinase Chk2 (Homo sapiens) (UniProt O96017); conditions: Compound concentration 1000.0 nM
Serine/threonine-protein kinase Chk2 (Homo sapiens), sequence (O96017 whole entry, canonical isoform): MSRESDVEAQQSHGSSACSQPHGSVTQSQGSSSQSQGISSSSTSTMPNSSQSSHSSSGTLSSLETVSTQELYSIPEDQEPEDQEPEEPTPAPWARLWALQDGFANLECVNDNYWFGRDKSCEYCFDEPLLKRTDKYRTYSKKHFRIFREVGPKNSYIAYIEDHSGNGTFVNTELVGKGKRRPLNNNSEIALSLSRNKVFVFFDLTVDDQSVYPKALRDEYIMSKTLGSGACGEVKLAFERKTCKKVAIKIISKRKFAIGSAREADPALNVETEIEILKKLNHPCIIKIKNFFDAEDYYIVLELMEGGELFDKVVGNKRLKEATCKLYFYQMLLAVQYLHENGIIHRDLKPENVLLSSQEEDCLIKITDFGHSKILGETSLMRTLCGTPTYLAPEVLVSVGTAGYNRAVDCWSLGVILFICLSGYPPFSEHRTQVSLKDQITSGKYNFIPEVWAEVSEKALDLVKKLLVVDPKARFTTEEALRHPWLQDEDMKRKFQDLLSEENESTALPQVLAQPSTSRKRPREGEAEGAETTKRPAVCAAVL

[13] = biological target: Casein kinase I isoform gamma-1 (Homo sapiens) (UniProt Q9HCP0); conditions: Compound concentration 1000.0 nM
[14] = biological target: Casein kinase I isoform gamma-3 (Homo sapiens) (UniProt Q9Y6M4); conditions: Compound concentration 1000.0 nM
[15] = biological target: Serine/threonine-protein kinase MRCK gamma (Homo sapiens) (UniProt Q6DT37); conditions: Compound concentration 1000.0 nM
Serine/threonine-protein kinase MRCK gamma (Homo sapiens), sequence (Q6DT37 whole entry): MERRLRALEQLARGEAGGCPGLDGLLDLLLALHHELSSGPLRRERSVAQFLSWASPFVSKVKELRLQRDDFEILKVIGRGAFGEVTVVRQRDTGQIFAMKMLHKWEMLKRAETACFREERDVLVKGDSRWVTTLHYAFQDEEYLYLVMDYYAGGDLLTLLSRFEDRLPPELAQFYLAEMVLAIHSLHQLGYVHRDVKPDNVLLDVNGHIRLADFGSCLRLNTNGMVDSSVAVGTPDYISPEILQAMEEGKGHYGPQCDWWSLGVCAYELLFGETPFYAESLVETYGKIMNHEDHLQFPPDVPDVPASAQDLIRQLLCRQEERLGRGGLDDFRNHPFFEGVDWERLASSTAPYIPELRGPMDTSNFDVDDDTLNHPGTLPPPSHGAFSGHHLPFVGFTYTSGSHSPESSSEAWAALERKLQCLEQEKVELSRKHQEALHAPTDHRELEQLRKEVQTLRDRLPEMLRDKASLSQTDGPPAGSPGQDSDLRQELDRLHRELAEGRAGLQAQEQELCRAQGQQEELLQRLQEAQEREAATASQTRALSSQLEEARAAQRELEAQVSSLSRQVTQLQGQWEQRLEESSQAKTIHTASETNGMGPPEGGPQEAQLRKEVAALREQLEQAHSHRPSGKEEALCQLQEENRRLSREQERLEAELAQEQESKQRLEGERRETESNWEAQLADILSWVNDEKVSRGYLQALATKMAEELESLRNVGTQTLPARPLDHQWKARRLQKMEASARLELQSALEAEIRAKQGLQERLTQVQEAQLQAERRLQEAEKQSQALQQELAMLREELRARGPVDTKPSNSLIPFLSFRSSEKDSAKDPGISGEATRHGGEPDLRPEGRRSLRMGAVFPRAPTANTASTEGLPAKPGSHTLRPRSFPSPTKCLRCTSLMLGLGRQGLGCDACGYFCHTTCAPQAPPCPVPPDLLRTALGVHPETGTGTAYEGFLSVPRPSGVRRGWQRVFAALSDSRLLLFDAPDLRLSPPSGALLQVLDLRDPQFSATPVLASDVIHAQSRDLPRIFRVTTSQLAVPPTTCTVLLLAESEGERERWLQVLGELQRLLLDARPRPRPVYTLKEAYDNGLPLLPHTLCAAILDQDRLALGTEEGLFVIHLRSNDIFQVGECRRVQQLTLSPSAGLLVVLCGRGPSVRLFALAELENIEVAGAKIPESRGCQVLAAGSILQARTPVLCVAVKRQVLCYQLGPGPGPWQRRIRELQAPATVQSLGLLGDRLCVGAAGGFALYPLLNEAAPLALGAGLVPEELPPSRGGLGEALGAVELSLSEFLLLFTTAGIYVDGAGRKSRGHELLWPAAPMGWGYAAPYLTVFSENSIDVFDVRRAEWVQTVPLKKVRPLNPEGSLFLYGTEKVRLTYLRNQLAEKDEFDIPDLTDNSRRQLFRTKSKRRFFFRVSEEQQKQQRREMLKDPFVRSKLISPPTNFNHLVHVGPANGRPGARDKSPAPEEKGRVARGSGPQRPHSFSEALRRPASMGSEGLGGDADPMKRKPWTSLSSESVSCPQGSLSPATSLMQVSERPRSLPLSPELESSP

[16] = system: Epidermal growth factor receptor (Homo sapiens), P00533 [G719C]; conditions: Compound concentration 1000.0 nM
[17] = biological target: Ephrin type-A receptor 8 (Homo sapiens) (UniProt P29322); conditions: Compound concentration 1000.0 nM
[18] = biological target: Fibroblast growth factor receptor 4 (Homo sapiens) (UniProt P22455); conditions: Compound concentration 1000.0 nM
[19] = biological target: Mitogen-activated protein kinase 9 (Homo sapiens) (UniProt P45984); conditions: Compound concentration 1000.0 nM
[20] = biological target: LIM domain kinase 1 (Homo sapiens) (UniProt P53667); conditions: Compound concentration 1000.0 nM
LIM domain kinase 1 (Homo sapiens), sequence (P53667 whole entry, looked up, the tested form may be a part): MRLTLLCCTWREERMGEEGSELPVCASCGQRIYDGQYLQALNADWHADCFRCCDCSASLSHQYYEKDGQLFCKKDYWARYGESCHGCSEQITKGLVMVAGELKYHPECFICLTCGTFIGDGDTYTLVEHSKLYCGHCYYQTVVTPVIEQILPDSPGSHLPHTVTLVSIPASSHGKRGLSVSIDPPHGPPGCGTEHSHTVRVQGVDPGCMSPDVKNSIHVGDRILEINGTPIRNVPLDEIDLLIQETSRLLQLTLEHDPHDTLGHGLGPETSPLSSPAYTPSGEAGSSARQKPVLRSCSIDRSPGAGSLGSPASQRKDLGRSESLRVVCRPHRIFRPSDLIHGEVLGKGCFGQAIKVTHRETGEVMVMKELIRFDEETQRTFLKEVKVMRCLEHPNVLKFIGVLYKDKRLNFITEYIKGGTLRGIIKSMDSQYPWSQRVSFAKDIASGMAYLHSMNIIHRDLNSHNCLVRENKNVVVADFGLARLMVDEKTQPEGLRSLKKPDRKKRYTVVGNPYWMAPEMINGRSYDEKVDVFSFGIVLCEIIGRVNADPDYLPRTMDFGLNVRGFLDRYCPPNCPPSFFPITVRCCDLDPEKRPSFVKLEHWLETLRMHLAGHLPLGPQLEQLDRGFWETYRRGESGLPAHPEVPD

[21] = biological target: Serine/threonine-protein kinase 10 (Homo sapiens) (UniProt O94804); conditions: Compound concentration 1000.0 nM
[22] = biological target: Serine/threonine-protein kinase MAK (Homo sapiens) (UniProt P20794); conditions: Compound concentration 1000.0 nM
[23] = biological target: Mitogen-activated protein kinase kinase kinase 1 (Homo sapiens) (UniProt Q13233); conditions: Compound concentration 1000.0 nM
[24] = biological target: Misshapen-like kinase 1 (Homo sapiens) (UniProt Q8N4C8); conditions: Compound concentration 1000.0 nM
[25] = biological target: Dual specificity mitogen-activated protein kinase kinase 7 (Homo sapiens) (UniProt O14733); conditions: Compound concentration 1000.0 nM
[26] = biological target: Macrophage-stimulating protein receptor (Homo sapiens) (UniProt Q04912); conditions: Compound concentration 1000.0 nM
[27] = biological target: Myosin light chain kinase 2, skeletal/cardiac muscle (Homo sapiens) (UniProt Q9H1R3); conditions: Compound concentration 1000.0 nM
[28] = biological target: Serine/threonine-protein kinase Nek1 (Homo sapiens) (UniProt Q96PY6); conditions: Compound concentration 1000.0 nM
[29] = biological target: Serine/threonine-protein kinase Nek3 (Homo sapiens) (UniProt P51956); conditions: Compound concentration 1000.0 nM
Serine/threonine-protein kinase Nek3 (Homo sapiens), sequence (P51956 whole entry): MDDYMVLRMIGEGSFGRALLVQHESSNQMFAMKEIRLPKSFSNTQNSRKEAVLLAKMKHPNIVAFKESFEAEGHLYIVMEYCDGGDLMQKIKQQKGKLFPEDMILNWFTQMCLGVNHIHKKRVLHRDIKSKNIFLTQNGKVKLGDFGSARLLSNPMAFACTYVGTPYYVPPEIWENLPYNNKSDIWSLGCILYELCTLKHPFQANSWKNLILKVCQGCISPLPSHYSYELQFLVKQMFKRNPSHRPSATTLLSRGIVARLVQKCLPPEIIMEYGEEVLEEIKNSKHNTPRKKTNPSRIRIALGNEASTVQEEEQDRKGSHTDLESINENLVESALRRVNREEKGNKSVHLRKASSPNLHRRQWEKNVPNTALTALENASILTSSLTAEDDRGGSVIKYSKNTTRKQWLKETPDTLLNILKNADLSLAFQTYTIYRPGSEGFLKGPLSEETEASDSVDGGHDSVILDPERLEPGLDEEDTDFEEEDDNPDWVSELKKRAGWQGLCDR

[30] = biological target: Cyclin-dependent kinase 14 (Homo sapiens) (UniProt O94921); conditions: Compound concentration 1000.0 nM
[31] = biological target: Phosphatidylinositol 4-phosphate 5-kinase type-1 gamma (Homo sapiens) (UniProt O60331); conditions: Compound concentration 1000.0 nM
Phosphatidylinositol 4-phosphate 5-kinase type-1 gamma (Homo sapiens), sequence (O60331 whole entry): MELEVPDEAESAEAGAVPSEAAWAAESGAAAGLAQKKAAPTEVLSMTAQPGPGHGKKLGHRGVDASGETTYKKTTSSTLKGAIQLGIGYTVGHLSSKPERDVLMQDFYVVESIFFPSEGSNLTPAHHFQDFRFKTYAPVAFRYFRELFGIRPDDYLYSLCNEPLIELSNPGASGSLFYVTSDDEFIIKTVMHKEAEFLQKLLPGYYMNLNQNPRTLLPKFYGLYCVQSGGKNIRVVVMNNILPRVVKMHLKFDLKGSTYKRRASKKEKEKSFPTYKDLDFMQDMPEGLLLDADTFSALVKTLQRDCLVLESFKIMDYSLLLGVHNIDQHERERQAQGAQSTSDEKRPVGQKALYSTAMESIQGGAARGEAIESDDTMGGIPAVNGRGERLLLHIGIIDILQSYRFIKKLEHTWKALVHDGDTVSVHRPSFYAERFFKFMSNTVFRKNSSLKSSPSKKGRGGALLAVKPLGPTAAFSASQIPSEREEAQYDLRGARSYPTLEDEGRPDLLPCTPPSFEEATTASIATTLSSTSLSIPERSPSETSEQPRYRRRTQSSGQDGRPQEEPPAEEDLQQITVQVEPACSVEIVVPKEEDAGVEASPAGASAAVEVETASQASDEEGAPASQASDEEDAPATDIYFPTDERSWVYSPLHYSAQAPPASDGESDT

[32] = biological target: Membrane-associated tyrosine- and threonine-specific cdc2-inhibitory kinase (Homo sapiens) (UniProt Q99640); conditions: Compound concentration 1000.0 nM
[33] = biological target: Serine/threonine-protein kinase PLK1 (Homo sapiens) (UniProt P53350); conditions: Compound concentration 1000.0 nM
[34] = biological target: Protein kinase C eta type (Homo sapiens) (UniProt P24723); conditions: Compound concentration 1000.0 nM
[35] = biological target: Protein kinase C iota type (Homo sapiens) (UniProt P41743); conditions: Compound concentration 1000.0 nM
[36] = biological target: Serine/threonine-protein kinase PRP4 homolog (Homo sapiens) (UniProt Q13523); conditions: Compound concentration 1000.0 nM
[37] = biological target: Serine/threonine-protein kinase Sgk3 (Homo sapiens) (UniProt Q96BR1); conditions: Compound concentration 1000.0 nM
[38] = biological target: Serine/threonine-protein kinase SIK1 (Homo sapiens) (UniProt P57059); conditions: Compound concentration 1000.0 nM
[39] = biological target: Serine/threonine-protein kinase 16 (Homo sapiens) (UniProt O75716); conditions: Compound concentration 1000.0 nM
[40] = biological target: Angiopoietin-1 receptor (Homo sapiens) (UniProt Q02763); conditions: Compound concentration 1000.0 nM
[41] = biological target: Non-receptor tyrosine-protein kinase TNK1 (Homo sapiens) (UniProt Q13470); conditions: Compound concentration 1000.0 nM
[42] = biological target: Serine/threonine-protein kinase TNNI3K (Homo sapiens) (UniProt Q59H18); conditions: Compound concentration 1000.0 nM
Serine/threonine-protein kinase TNNI3K (Homo sapiens), sequence (Q59H18 whole entry): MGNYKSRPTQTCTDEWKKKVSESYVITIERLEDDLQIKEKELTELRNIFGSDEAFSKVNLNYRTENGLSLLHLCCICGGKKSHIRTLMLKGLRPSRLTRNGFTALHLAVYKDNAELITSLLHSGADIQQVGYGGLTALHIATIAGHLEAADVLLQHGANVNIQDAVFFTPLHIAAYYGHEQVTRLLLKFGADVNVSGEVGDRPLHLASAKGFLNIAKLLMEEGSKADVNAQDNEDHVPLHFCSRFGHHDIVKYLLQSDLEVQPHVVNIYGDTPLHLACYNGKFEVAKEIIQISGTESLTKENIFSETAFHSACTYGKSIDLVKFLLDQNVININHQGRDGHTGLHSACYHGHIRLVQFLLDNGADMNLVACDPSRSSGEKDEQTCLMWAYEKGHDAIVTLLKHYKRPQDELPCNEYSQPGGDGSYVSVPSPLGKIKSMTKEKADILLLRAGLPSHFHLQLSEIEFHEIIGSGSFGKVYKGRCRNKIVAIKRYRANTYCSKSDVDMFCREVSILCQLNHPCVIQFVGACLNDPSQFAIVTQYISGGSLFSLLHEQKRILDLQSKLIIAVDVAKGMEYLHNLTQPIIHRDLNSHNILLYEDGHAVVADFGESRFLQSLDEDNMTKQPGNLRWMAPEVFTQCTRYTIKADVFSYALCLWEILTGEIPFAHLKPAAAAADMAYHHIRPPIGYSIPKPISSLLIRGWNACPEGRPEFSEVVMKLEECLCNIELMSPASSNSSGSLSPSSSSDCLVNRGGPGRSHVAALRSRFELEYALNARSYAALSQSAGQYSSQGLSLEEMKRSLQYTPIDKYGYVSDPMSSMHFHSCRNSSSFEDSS

[43] = biological target: Dual specificity protein kinase TTK (Homo sapiens) (UniProt P33981); conditions: Compound concentration 1000.0 nM
[44] = biological target: Wee1-like protein kinase 2 (Homo sapiens) (UniProt P0C1S8); conditions: Compound concentration 1000.0 nM
[45] = biological target: 5-hydroxytryptamine receptor 2C (Homo sapiens) (UniProt P28335); conditions: Compound concentration 10.0 uM

## O=c1nc(-c2ccccn2)sc2ccccc12 [BTZO-1]
[1]
  residual activity: 100%
[2]
  residual activity: 93%
[3]
  residual activity: 71%
[4]
  residual activity: 100%
[5]
  residual activity: 100%
[6]
  residual activity: 90%
[7]
  residual activity: 100%
[8]
  residual activity: 97%
[9]
  residual activity: 99%
[10]
  residual activity: 100%
[11]
  residual activity: 36%
[12]
  residual activity: 100%
[13]
  residual activity: 96%
[14]
  residual activity: 100%
[15]
  residual activity: 80%
[16]
  residual activity: 77%
[17]
  residual activity: 78%
[18]
  residual activity: 73%
[19]
  residual activity: 100%
[20]
  residual activity: 84%
[21]
  residual activity: 99%
[22]
  residual activity: 89%
[23]
  residual activity: 65%
[24]
  residual activity: 83%
[25]
  residual activity: 93%
[26]
  residual activity: 100%
[27]
  residual activity: 100%
[28]
  residual activity: 100%
[29]
  residual activity: 72%
[30]
  residual activity: 100%
[31]
  residual activity: 84%
[32]
  residual activity: 100%
[33]
  residual activity: 100%
[34]
  residual activity: 98%
[35]
  residual activity: 100%
[36]
  residual activity: 71%
[37]
  residual activity: 100%
[38]
  residual activity: 95%
[39]
  residual activity: 83%
[40]
  residual activity: 99%
[41]
  residual activity: 59%
[42]
  residual activity: 87%
[43]
  residual activity: 100%
[44]
  residual activity: 100%
[45]
  inhibition: 12.2%

## O=C1NC(c2ccccn2)Sc2ccccc21 (stereo not given) [BTZO-4]
[1]
  residual activity: 93%
[2]
  residual activity: 97%
[3]
  residual activity: 65%
[4]
  residual activity: 90%
[5]
  residual activity: 100%
[6]
  residual activity: 82%
[7]
  residual activity: 100%
[8]
  residual activity: 72%
[9]
  residual activity: 100%
[10]
  residual activity: 93%
[11]
  residual activity: 78%
[12]
  residual activity: 100%
[13]
  residual activity: 90%
[14]
  residual activity: 100%
[15]
  residual activity: 80%
[16]
  residual activity: 87%
[17]
  residual activity: 63%
[18]
  residual activity: 89%
[19]
  residual activity: 100%
[20]
  residual activity: 78%
[21]
  residual activity: 100%
[22]
  residual activity: 92%
[23]
  residual activity: 55%
[24]
  residual activity: 72%
[25]
  residual activity: 87%
[26]
  residual activity: 100%
[27]
  residual activity: 100%
[28]
  residual activity: 100%
[29]
  residual activity: 80%
[30]
  residual activity: 100%
[31]
  residual activity: 77%
[32]
  residual activity: 100%
[33]
  residual activity: 100%
[34]
  residual activity: 100%
[35]
  residual activity: 72%
[36]
  residual activity: 78%
[37]
  residual activity: 100%
[38]
  residual activity: 88%
[39]
  residual activity: 83%
[40]
  residual activity: 100%
[41]
  residual activity: 55%
[42]
  residual activity: 87%
[43]
  residual activity: 91%
[44]
  residual activity: 85%
[45]
  inhibition: 3.98%
